Reference: patent US20100160351A1, “PHARMACEUTICAL COMPOSITIONS AND METHODS FOR TREATING HYPERURICEMIA AND RELATED DISORDERS” (NUON THERAPEUTICS, INC., priority 2008, published 2010)

Test system: monosodium urate (MSU) crystal-induced air pouch inflammation
Assay: Air Pouch Model 4: MSU crystal air pouch, rodent model of gout
Assay type: in vivo, male Sprague-Dawley rats
Details: 30 min before MSU; for Average Exudate Volume, Mean / Average Plasma Extravasation, OD620 nm, Mean / Total WBC in Sample, Mean / WBC in exudate, Mean: 4 h after MSU
Experimental: The objective of this study was to evaluate the anti-inflammatory potency of Tranilast. This evaluation was carried out in male Sprague-Dawley rats in a rodent model of gout. The animals were injected subcutaneously with 20 ml of sterile air, followed three days later by a supplemental injection with 20 ml of sterile air. Six days after the initial sterile air injection, the rats were injected intravenously with Evan's Blue and pretreated for thirty minutes with oral administration of 3 mg/kg, 10 mg/kg, 30 mg/kg, 100 mg/kg, or 300 mg/kg tranilast. After the pretreatment period, the rats were injected with 150 mg of monosodium urate (MSU) crystals (10 mg/ml) into the air pouch. Four hours later, the air pouch was injected with 5 ml heparinized saline and the entire contents of the air pouch removed, recording the total volume. The air pouch contents were evaluated for plasma extravasation and total white blood cell (WBC) count.
(§1) On day 0 the rats were anesthetized in a biological cabinet, the nape of the neck was cleansed with 70% isopropanol followed by iodine tincture (VEDCO). Twenty ml sterile (0.22 μm, Millipore, Cat. SLGSV255F) air was injected subcutaneously using a 23 G×2 inch needle fixed to a 20 ml syringe. The rats were returned to routine housing. No adverse reactions were observed.
as §1, with “day 3” for “day 0”, “μm, Fisher Scientific,” for “μm, Millipore,”, “Cat. 09-720-3)” for “Cat. SLGSV255F)”
On day 6 the rats were weighed (Mettler, Model PE3000, SN: F69474) and injected intravenously injected with 2 ml/kg Evans Blue. The animals were dosed orally with 0.06 ml/kg, 0.2 ml/kg, 0.6 ml/kg, 2 ml/kg, or 6 ml/kg tranilast or 6 ml/kg vehicle.
Thirty minutes after test material administration, the rats were anesthetized and six groups (2-7) were injected into the air pouch with 15 ml MSU using a 19 G×2 inch needle fitted to a 20 ml syringe. Group 1 was injected with 15 ml saline. The rats were returned to their cages, no adverse affects were observed.
Four hours after MSU/saline injection, the rats were anesthetized and 5 ml 10 U/ml heparinized saline was injected into the air pouch. The air pouch was gently massaged, the contents immediately removed using a 14 G×1 inch needle fitted to a 6 ml syringe, and the exudate volume recorded. An aliquot of the exudate was transferred to heparin-treated microtainer tubes (Becton Dickinson, Cat. 365958) for white blood cell (WBC) counting. The remainder of the exudate was centrifuged (Hermle Labrotechnik, Model Z200A, SN: 44060036), the supernatants removed and evaluated at OD620nm (Spectronic Unicam, Model 4000 1/4, SN: 3SGD003006) for plasma extravasation.

COc1ccc(/C=C/C(=O)Nc2ccccc2C(=O)O)cc1OC [Tranilast, 2-[[3-(3,4-dimethoxyphenyl)-1-oxo-2-propenyl]amino]benzoic acid]
Average Exudate Volume, Mean (3 mg/kg oral): 9.6 mL
Average Plasma Extravasation, OD620 nm, Mean (3 mg/kg oral): 1.940
Total WBC in Sample, Mean (3 mg/kg oral): 368228000
WBC in exudate, Mean (3 mg/kg oral): 38510000 cells/ml
Average Exudate Volume, Mean (10 mg/kg oral): 7.7 mL
Average Plasma Extravasation, OD620 nm, Mean (10 mg/kg oral): 1.662
Total WBC in Sample, Mean (10 mg/kg oral): 471436000
WBC in exudate, Mean (10 mg/kg oral): 61200000 cells/ml
Average Exudate Volume, Mean (30 mg/kg oral): 7.1 mL
Average Plasma Extravasation, OD620 nm, Mean (30 mg/kg oral): 1.089
Total WBC in Sample, Mean (30 mg/kg oral): 286935000
WBC in exudate, Mean (30 mg/kg oral): 39650000 cells/ml
Average Exudate Volume, Mean (100 mg/kg oral): 5.1 mL
Average Plasma Extravasation, OD620 nm, Mean (100 mg/kg oral): 1.180
Total WBC in Sample, Mean (100 mg/kg oral): 159916000
WBC in exudate, Mean (100 mg/kg oral): 31740000 cells/ml
Average Exudate Volume, Mean (300 mg/kg oral): 3.9 mL
Average Plasma Extravasation, OD620 nm, Mean (300 mg/kg oral): 0.613
Total WBC in Sample, Mean (300 mg/kg oral): 77451111
WBC in exudate, Mean (300 mg/kg oral): 19466667 cells/ml
inhibition of plasma extravasation (highest dose 300 mg/kg oral): 67%
inhibition of white blood cell infiltration (highest dose 300 mg/kg oral): 80%
effect on MSU-induced parameters (plasma extravasation, leukocyte infiltration) (oral 3-300 mg/kg): dose-dependent inhibition
